From patent EP0538248B1, “TETRAHYDROISOQUINOLINYLCARBAMATES OF 1,2,3,3A,8,8A-HEXAHYDRO-1,3A,8-TRIMETHYLPYRROLO [2,3-B]INDOLE” (priority 1990, dated 1992) come the findings set out here.

The nature of data set [1]: Oral bioavailability studies (absorption, brain:plasma partition).
Data set [2] deals with anesthetized dogs. Description: Cardiovascular effects in anesthetized dogs during combined blockade of alpha and beta adrenergic receptors. On the procedure:
(§1) Beagles of either sex are anesthetized with sodium thiopental 15 mg/kg + sodium barbital 200 mg/kg + 60 mg of sodium pentobarbital i.v. The trachea is intubated with a cuffed endotracheal tube and connected to a Harvard Respirator Pump set at 20 ml/stroke and 10 strokes/minute. The right femoral artery and vein are exposed and cannulated with polyethylene tubing for measurement of arterial blood pressure and i.v. administration of drugs, respectively. The duration of these experiments is two hours postdrug when drug is administered i.v. and three hours when administered i.d.
The arterial cannula is connected to a Statham P23Gb transducer. Left ventricular cardiac catheterization is accomplished by introducing a Millar microtip pressure transducer into the left carotid artery and advancing it to the left ventricle. The cannula is connected to a Millar TC-100 transducer control unit which is connected to a Beckman voltage/pressure pulse coupler. Ventricular pressure and its first derivative dP/dt are measured simultaneously by wiring the signal output from the left ventricular pressure tracing into a differentiator. […] The proximal lumen of this catheter is in the right atrium when the distal lumen and thermistor have been properly placed in the pulmonary artery. […] Cardiac output is determined by injecting 5 ml of iced 5% dextrose in water into the proximal site (right atrium) and then measuring the temperature change in the pulmonary artery. Using the Stewart-Hamilton equation, the cardiac output can be determined by integrating the area under the thermodilution curve with an Edwards Cardiac Output Computer (model 9520). Heart rate is determined with a Beckman Cardiotach which sums the pressure waves from the pulse pressure curve of the arterial pressure. Lead II EKG is recorded. […] The measurement of these parameters provides information so that the following may be either measured directly or calculated: • 1. […] Central Venous Pressure - CVP measured as right atrial pressure (RAP) mmHg or cmH2O. • 9. […]

Data set [3] in a line: Stability on incubation with human plasma at 37°C. The following applies: after 4 hours. The format is in vitro ADME.
Data set [4] concerns anesthetized dog. Description: Acute cardiovascular hemodynamic evaluation in the anesthetized dog. The following applies: for CO: cardiac output; for HR: heart rate; for LVEDP: left ventricular end-diastolic pressure; for MAP: mean arterial blood pressure; for RAP: right atrial pressure. On the procedure:
(Details of test methods used for determining acute cardiovascular hemodynamic effects are presented following the Conclusion section).
as §1
The arterial cannula is connected to a Statham P23Gb transducer. Left ventricular cardiac catheterization is accomplished by introducing a Millar microtip pressure transducer into the left carotid artery and advancing it to the left ventricle. The cannula is connected to a Millar TC-100 transducer control unit which is connected to a Beckman voltage/pressure pulse coupler. Ventricular pressure and its first derivative dP/dt are measured simultaneously by wiring the signal output from the left ventricular pressure tracing into a differentiator. […] The proximal lumen of this catheter is in the right atrium when the distal lumen and thermistor have been properly placed in the pulmonary artery. The signal outputs from the proximal and distal sites are connected to Statham P23BB transducers to measure right atrial pressure (RAP) and pulmonary artery pressure (PAP). Cardiac output is determined by injecting 5 ml of iced 5% dextrose in water into the proximal site (right atrium) and then measuring the temperature change in the pulmonary artery. Using the Stewart-Hamilton equation, the cardiac output can be determined by integrating the area under the thermodilution curve with an Edwards Cardiac Output Computer (model 9520). Heart rate is determined with a Beckman Cardiotach which sums the pressure waves from the pulse pressure curve of the arterial pressure. Lead II EKG is recorded. […] The measurement of these parameters provides information so that the following may be either measured directly or calculated: • 1. Mean Arterial Blood Pressure - MAP (mmHg) • 2. Heart Rate - HR • 3. Cardiac Output - CO (1/minute) • 4. Total Peripheral Resistance - TPR • 5. Cardiac Index - CI (CO/m^2) • 6. Stroke Volume - SV (ml/beat) • 7. Stroke Work - SW (gm-m/beat) • 8. Central Venous Pressure - CVP measured as right atrial pressure (RAP) mmHg or cmH2O. • 9. Left Ventricular End Diastolic Pressure - LVEDP (mmHg) • 10. Rate of Rise of Ventricular Pressure - dP/dt/Pmax This parameter is a better estimate of the contractile state of the myocardium that dP/ dt alone since the former is relatively independent of the loading conditions of the heart (sec^-1). • 11. Plumonary Artery Pressure - PAP (mmHg) • 12. Electrocardiogram - EKG

Data set [5] addresses butyrylcholinesterase (Homo sapiens, UniProt P06276). The following applies: relative to physostigmine.
Data set [6] has as its target T1, rat brain AChE (Rattus norvegicus, UniProt P37136).
T1 sequence (P37136 32-614): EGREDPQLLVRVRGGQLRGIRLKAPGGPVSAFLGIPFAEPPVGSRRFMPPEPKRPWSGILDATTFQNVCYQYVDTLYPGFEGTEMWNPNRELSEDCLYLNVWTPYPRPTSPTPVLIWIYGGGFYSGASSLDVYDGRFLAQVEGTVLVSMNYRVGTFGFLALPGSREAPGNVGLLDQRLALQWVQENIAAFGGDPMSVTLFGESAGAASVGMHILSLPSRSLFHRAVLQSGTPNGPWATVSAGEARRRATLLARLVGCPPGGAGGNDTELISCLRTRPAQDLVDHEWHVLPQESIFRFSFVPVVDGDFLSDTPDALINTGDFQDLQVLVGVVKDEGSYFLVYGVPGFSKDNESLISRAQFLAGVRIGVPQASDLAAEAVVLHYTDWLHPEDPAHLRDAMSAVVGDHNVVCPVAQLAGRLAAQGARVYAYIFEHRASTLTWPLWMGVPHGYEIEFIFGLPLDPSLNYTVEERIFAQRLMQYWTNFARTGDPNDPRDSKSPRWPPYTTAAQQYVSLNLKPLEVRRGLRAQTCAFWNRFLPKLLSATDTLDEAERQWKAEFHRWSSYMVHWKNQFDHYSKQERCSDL
The method, then: The method described below was used in this invention for assaying cholinesterase activity. This is a modification of the method of Ellman et al., Biochem. Pharmacol. 7, 98 (1961).
• A. Reagents - • 1. 0.05 M Phosphate buffer, pH 7.2 • (a) 6.85 g NaH2PO4•H2O/100 ml distilled H2O • (b) 13.40 g Na2HPO4•7H2O/100 ml distilled H2O • (c) add (a) to (b) until pH reaches 7.2 • (d) Dilute 1:10 • 2. Substrate in buffer • (a) 198 mg acetylthiocholine chloride (10 mM) • (b) q.s to 100 ml with 0.05 M phosphate buffer, pH 7.2 (reagent 1) • 3. DTNB in buffer • (a) 19.8 mg 5,5-dithiobisnitrobenzoic acid (DTNB) (0.5 mM) • (b) q.s. to 100 ml with 0.05 M phosphate buffer, pH 7.2 (reagent 1) • 4. A 2 mM stock solution of the test drug is made up in a suitable solvent and q.s. to volume with 0.5 mM DTNB (reagent 3). Drugs are serially diluted (1:10) such that the final concentration (in cuvette) is 10^-4 M and screened for activity. If active, IC50 values are determined from the inhibitory activity of subsequent concentrations. • B. Tissue Preparation- Male Wistar rats are decapitated, brains rapidly removed, copora striata disected free, weighed and homogenized in 19 volumes (approximately 7 mg protein/ml) of 0.05 M phosphate buffer, pH 7.2 using a Potter-Elvehjem homogenizer. A 25 microliter aliquot of the homogenate is added to 1.0 milliter vehicle or various concentrations of the test drug and preincubated for 10 minutes at 37°C. • C. Assay- Enzyme activity is measured with the Beckman DU-50 spectrophotometer. This method can be used for IC50 determinations and for measuring kinetic constants. Instruments Settings • Kinetics Soft-Pac Module #598273 (10) • Program #6 Kindata: • Source - Vis • Wavelength - 412 nm • Sipper - none • Cuvettes - 2 ml cuvettes using auto 6-sampler • Blank - 1 for each substrate concentration • Interval time - 15 seconds (15 or 30 seconds for kinetics) • Total time - 5 minutes (5 or 10 minutes for kinetics) • Plot - yes • Span - autoscale • Slope - increasing • Results - yes (gives slope) • Factor - 1
Reagents are added to the blank and sample cuvettes as follows: Blank: 0.8 ml Phosphate Buffer/DTNB 0.8 ml Buffer/Substrate Control: 0.8 ml Phosphate Buffer/DTNB/Enzyme 0.8 ml Phosphate Buffer/Substrate Drug: 0.8 ml Phosphate Buffer/DTNB/Drug/ Enzyme 0.8 ml Phosphate Buffer/Substrate Blank values are determined for each run to control for non-enzymatic hydrolysis of substrate and these values are automatically subtracted by the kindata program available on kinetics soft-pac module. This program also calculates the rate of absorbance change for each cuvette.
Substrate concentration is 10 mM diluted 1:2 in assay yielding final concentration of 5 mM.

For data set [7], the system named is [^3H]norepinephrine release. Kind of data set: [3H]norepinephrine release in vitro. The format is biochemical, Rat. The following applies: Compound A at 100 µM.
The mark [8] stands for this setting: 0.01 mg/kg/min i.v. during alpha and beta receptor blockade.
The mark [9] stands for this setting: 0.01 mg/kg/min. i.v., anesthetized dog.
Setting [10] is: 0.1 mg/kg/min. i.v., anesthetized dog.

Where two headings read alike, the source gives them in different places.

butyrylcholinesterase, sequence (P06276 29-602): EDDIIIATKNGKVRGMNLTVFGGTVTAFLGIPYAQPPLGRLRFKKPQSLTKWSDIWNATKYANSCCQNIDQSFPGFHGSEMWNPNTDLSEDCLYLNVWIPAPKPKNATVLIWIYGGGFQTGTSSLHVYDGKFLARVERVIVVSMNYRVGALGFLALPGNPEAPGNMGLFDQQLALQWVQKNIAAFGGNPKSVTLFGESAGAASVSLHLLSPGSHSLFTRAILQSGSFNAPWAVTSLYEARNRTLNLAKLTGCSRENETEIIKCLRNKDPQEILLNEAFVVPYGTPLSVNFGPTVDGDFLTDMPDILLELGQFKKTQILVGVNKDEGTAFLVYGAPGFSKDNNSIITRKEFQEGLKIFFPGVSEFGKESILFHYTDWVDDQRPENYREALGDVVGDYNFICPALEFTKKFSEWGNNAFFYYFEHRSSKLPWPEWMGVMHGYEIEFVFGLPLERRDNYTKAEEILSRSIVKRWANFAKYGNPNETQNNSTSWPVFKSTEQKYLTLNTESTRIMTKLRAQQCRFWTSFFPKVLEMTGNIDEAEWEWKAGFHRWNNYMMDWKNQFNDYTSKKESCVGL

Consider `CNC(=O)Oc1ccc2c(c1)[C@]1(C)CCN(C)[C@@H]1N2C` [physostigmine], for which, in data set [1], the “oral absorption / bioavailability” value is “so poorly bioavailable by the oral route that pharmacokinetic data was not available”. Further, in data set [2] (setting [8]), the “mortality (dogs)” value is on record as 3 out of 3 and the time to mortality was in the range of 17 to 29 min. In addition, the “compound remaining after incubation with human plasma” value in data set [3] is “completely destroyed”. The mortality entry in data set [4] (0.01 mg/kg/min i.v., intact alpha and beta adrenergic receptors) is listed as “no mortality”. In addition, in data set [4] (setting [9]), the TRP is given as -34%, the dP/dT is -32%, the CO was -23% and the HR is -49%. In data set [4] (setting [9]), the LVEDP entry is on record as “+5mmHG”, the MAP is reported as -49% and the RAP entry was “+5mmHG”. Also, in data set [4] (setting [10]), the ECG entry is given as “A-V block inc. T wave”, the TRP is -48%, the dP/dT is -80% and the CO is -79%. In data set [4] (setting [10]), the HR is on record as -82%, the LVEDP entry was “+8mmHG”, the MAP was -78% and the RAP entry was “+8mmHG”.

For “(3aS-cis)-1,2,3,3a,8,8a-hexahydro-1,3a,8-trimethylpyrrolo[2,3-b]indol-5-ol,(1,2,3,4-tetrahydroisoquinolinyl)carbamate [Compound A]”, in data set [1], the “oral absorption / bioavailability” value is on record as “rapidly absorbed orally”. Moreover, in data set [2] (0.1 mg/kg/min i.v. during alpha and beta adrenergic blockade), the “cardiac and hemodynamic effects” value is “moderate decreases in blood pressure and cardiac output”. Besides, the “potency as an inhibitor of butyrylcholinesterase, times less potent than physostigmine” value in data set [5] is “approximately 34 times”. For the same compound, the “compound remaining after incubation with human plasma” value in data set [3] was “approximately 70%”. Besides, in data set [6] (20 mg/kg for four days in rats), the “accumulation effect on repeated administration” value is “no accumulation effect”. In addition, in data set [6] (20 mg/kg, 4 hours after oral administration), the “inhibition of rat brain AChE ex vivo” value is listed as “significantly inhibitied”. Further, the “inhibition of rat brain AChE ex vivo” value in data set [6] (20 mg/kg, 6 hours after oral administration) is “significantly inhibitied”. Moreover, the “inhibition of rat brain AChE ex vivo” value in data set [6] (20 mg/kg, 24 hours after oral administration) is given as “not statistically significant”. Besides, in data set [6] (after oral administration), the “inhibition of rat brain AChE ex vivo” value was “significant inhibition”. The “[^3H]norepinephrine release in vitro” value in data set [7] is on record as “stimulated”. For the same compound, in data set [4] (setting [9]), the TRP is on record as -18%, the dP/dT entry is listed as “+37%”, the HR was -12% and the MAP is recorded as -12%. Besides, in data set [4] (setting [10]), the TRP result is “+61%”, the dP/dT result is reported as “+38%”, the CO result was “+40%” and the HR is -13%. For the same compound, in data set [4] (setting [10]), the MAP result is on record as “+54%”.
